ChEMBL document CHEMBL1201862, “PubChem BioAssay data set” (2004)
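Five concentrations, 48 hours, 96-well plates. The concentration for 50% growth inhibition is given as GI50.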 The source made the active and inactive calls. No stated cut-off is given here; in the data, active = GI50 up to about 1.1 µM and inactive = higher.

What was measured:
Assay in all cases: NCI-60 cell line screen, 48 h
KM12 = tested on: KM12
SF-539 = tested on: SF-539
HOP-92 = tested on: HOP-92
Malme-3M = tested on: Malme-3M
OVCAR-8 = tested on: OVCAR-8
NCI/ADR-RES = tested on: NCI/ADR-RES
SNB-19 = tested on: SNB-19
MDA-MB-231 = tested on: MDA-MB-231
SR = tested on: SR
CAKI-1 = tested on: CAKI-1
HOP-62 = tested on: HOP-62
HCT-116 = tested on: HCT-116
PC-3 = tested on: PC-3
IGROV-1 = tested on: IGROV-1
ACHN = tested on: ACHN
A549 = tested on: A549
HT-29 = tested on: HT-29
NCI-H460 = tested on: NCI-H460
M14 = tested on: M14
BT-549 = tested on: BT-549

SMILES	GI50 (KM12)	GI50 (SF-539)	GI50 (HOP-92)	GI50 (Malme-3M)	GI50 (OVCAR-8)	GI50 (NCI/ADR-RES)	GI50 (SNB-19)	GI50 (MDA-MB-231)	GI50 (SR)	GI50 (CAKI-1)	GI50 (HOP-62)	GI50 (HCT-116)	GI50 (PC-3)	GI50 (IGROV-1)	GI50 (ACHN)	GI50 (A549)	GI50 (HT-29)	GI50 (NCI-H460)	GI50 (M14)	GI50 (BT-549)
O=C1NCCCc2nonc21	> 100 µM (inactive)	> 100 µM (inactive)	> 100 µM (inactive)	> 100 µM (inactive)	> 100 µM (inactive)	> 100 µM (inactive)	> 100 µM (inactive)	> 100 µM (inactive)	> 100 µM (inactive)	> 100 µM (inactive)	> 100 µM (inactive)	> 100 µM (inactive)	> 100 µM (inactive)	> 100 µM (inactive)	> 100 µM (inactive)	> 100 µM (inactive)	> 100 µM (inactive)	> 100 µM (inactive)	> 100 µM (inactive)	
O=C1CCCCC1=C(I)I	15.5 µM (inactive)	19.5 µM (inactive)	15.4 µM (inactive)	14.3 µM (inactive)	33.9 µM (inactive)		12.1 µM (inactive)		16.1 µM (inactive)		28.7 µM (inactive)	16.6 µM (inactive)	16.5 µM (inactive)	15.5 µM (inactive)	17.6 µM (inactive)	37.8 µM (inactive)		21.4 µM (inactive)	18 µM (inactive)	13 µM (inactive)
Cc1nnc2sc(Cc3cnc(N)s3)nn12	> 100 µM (inactive)	> 100 µM (inactive)	> 100 µM (inactive)	> 100 µM (inactive)	> 100 µM (inactive)	> 100 µM (inactive)	> 100 µM (inactive)	> 100 µM (inactive)	> 100 µM (inactive)		> 100 µM (inactive)	> 100 µM (inactive)	> 100 µM (inactive)	91.4 µM (inactive)	> 100 µM (inactive)	> 100 µM (inactive)	> 100 µM (inactive)	> 100 µM (inactive)	> 100 µM (inactive)	
COc1cc(C(C#N)NNc2nc(C)cc(O)n2)cc(OC)c1OC (configuration not stated)	> 100 µM (inactive)	> 100 µM (inactive)	51.6 µM (inactive)	> 100 µM (inactive)	> 100 µM (inactive)				37.5 µM (inactive)	> 100 µM (inactive)	> 100 µM (inactive)	> 100 µM (inactive)		> 100 µM (inactive)	> 100 µM (inactive)	> 100 µM (inactive)	> 100 µM (inactive)	> 100 µM (inactive)	> 100 µM (inactive)	
N#Cc1sc2c(c1OC(=O)c1ccc(C(F)(F)F)cc1)c(=O)n(-c1ccccc1)c(=S)n2-c1ccccc1	27.7 µM (inactive)	25.2 µM (inactive)	19.7 µM (inactive)	33 µM (inactive)	23.2 µM (inactive)	27.9 µM (inactive)	34 µM (inactive)	31.3 µM (inactive)	0.0481 µM (active)	32.4 µM (inactive)	31.1 µM (inactive)	17.8 µM (inactive)	26.7 µM (inactive)	21.2 µM (inactive)	26.2 µM (inactive)	23.3 µM (inactive)	25.2 µM (inactive)	30.3 µM (inactive)	24.2 µM (inactive)	
N#Cc1ccc(/C=N/NC(=O)CSCC(=O)N/N=C/c2ccc(C#N)cc2)cc1	> 100 µM (inactive)	> 100 µM (inactive)	> 100 µM (inactive)	> 100 µM (inactive)	53.1 µM (inactive)	> 100 µM (inactive)	> 100 µM (inactive)	29.1 µM (inactive)	> 100 µM (inactive)	> 100 µM (inactive)	> 100 µM (inactive)	> 100 µM (inactive)	> 100 µM (inactive)	> 100 µM (inactive)	> 100 µM (inactive)	> 100 µM (inactive)	> 100 µM (inactive)	> 100 µM (inactive)	> 100 µM (inactive)	
C=C1C(C(=O)O)C1C(=O)O (configuration not stated)	> 100 µM (inactive)	> 100 µM (inactive)	> 100 µM (inactive)	> 100 µM (inactive)	> 100 µM (inactive)		> 100 µM (inactive)		> 100 µM (inactive)	> 100 µM (inactive)	> 100 µM (inactive)	> 100 µM (inactive)		> 100 µM (inactive)	> 100 µM (inactive)	> 100 µM (inactive)	> 100 µM (inactive)	> 100 µM (inactive)	> 100 µM (inactive)	
CC12CCC(=O)N1c1cncnc1N2 (configuration not stated)	> 10 µM (inactive)	> 10 µM (inactive)	> 10 µM (inactive)	> 10 µM (inactive)	> 10 µM (inactive)	> 10 µM (inactive)	> 10 µM (inactive)		> 10 µM (inactive)			> 10 µM (inactive)	> 10 µM (inactive)	> 10 µM (inactive)	> 10 µM (inactive)	> 10 µM (inactive)	> 10 µM (inactive)	> 10 µM (inactive)	> 10 µM (inactive)	> 10 µM (inactive)
CC(C)CC(NC(=O)OC(C)(C)C)C(=O)Nc1ccc(Nc2nc(F)nc(-c3c4ccccc4c4n3CCS4)n2)cc1 (configuration not stated)	26.7 µM (inactive)	20.6 µM (inactive)	18.8 µM (inactive)	21.2 µM (inactive)	22 µM (inactive)		18.2 µM (inactive)		14.1 µM (inactive)	18.2 µM (inactive)	21.2 µM (inactive)	23.5 µM (inactive)		24 µM (inactive)	24.3 µM (inactive)	48.4 µM (inactive)	19.2 µM (inactive)	14.8 µM (inactive)	20.2 µM (inactive)	
CC(C)(C)[Si](C)(C)OC1/C(=C/C#N)C(n2ccc(=O)[nH]c2=O)OC1CO (configuration not stated)	> 100 µM (inactive)	> 100 µM (inactive)	3.01 µM (inactive)	> 100 µM (inactive)	> 100 µM (inactive)	> 100 µM (inactive)	> 100 µM (inactive)	> 100 µM (inactive)	42.1 µM (inactive)	> 100 µM (inactive)	> 100 µM (inactive)	> 100 µM (inactive)	> 100 µM (inactive)		> 100 µM (inactive)	> 100 µM (inactive)	> 100 µM (inactive)	> 100 µM (inactive)	> 100 µM (inactive)	
CSc1ncnc2c1CCN2	5.35 µM (inactive)		3.96 µM (inactive)	6.62 µM (inactive)	> 10 µM (inactive)	> 10 µM (inactive)	> 10 µM (inactive)	> 10 µM (inactive)	1.78 µM (inactive)	> 10 µM (inactive)	> 100 µM (inactive)	6.07 µM (inactive)	> 10 µM (inactive)	> 10 µM (inactive)	> 10 µM (inactive)	> 10 µM (inactive)	7.96 µM (inactive)	5.37 µM (inactive)	> 10 µM (inactive)	
O=C(Nc1ccc(Cl)cc1)c1cccc([N+](=O)[O-])c1O	4.53 µM (inactive)	4.18 µM (inactive)	1.61 µM (inactive)	1.37 µM (inactive)	4.39 µM (inactive)		2.92 µM (inactive)		4.76 µM (inactive)	3.19 µM (inactive)	1.98 µM (inactive)	3.94 µM (inactive)		3.03 µM (inactive)	2.85 µM (inactive)	3.65 µM (inactive)	4.25 µM (inactive)	2.1 µM (inactive)	3.63 µM (inactive)	
O=C(COc1ccccc1Cl)N1N=C(c2ccc(Cl)cc2)CC1(O)c1ccccc1 (configuration not stated)	> 100 µM (inactive)	> 100 µM (inactive)	> 100 µM (inactive)	> 100 µM (inactive)	> 100 µM (inactive)		> 100 µM (inactive)		> 100 µM (inactive)	> 100 µM (inactive)	> 100 µM (inactive)	> 100 µM (inactive)		> 100 µM (inactive)	> 100 µM (inactive)	> 100 µM (inactive)	> 100 µM (inactive)	> 100 µM (inactive)	> 100 µM (inactive)	
COC(=O)C12C3C4C5(C(=O)OC)C(C1C35C(=O)N(C(C)C)C(C)C)C42C(=O)N(C(C)C)C(C)C (configuration not stated)	> 50 µM (inactive)	> 50 µM (inactive)	> 50 µM (inactive)	> 50 µM (inactive)	> 50 µM (inactive)		> 50 µM (inactive)		> 50 µM (inactive)	> 50 µM (inactive)	> 50 µM (inactive)	14.7 µM (inactive)		> 50 µM (inactive)	> 50 µM (inactive)	> 45.9 µM (inactive)	> 50 µM (inactive)	> 37.6 µM (inactive)	> 50 µM (inactive)	
Cc1cc(N=C2C=C(Br)C(=O)C(Br)=C2)cc(CN(CC(=O)O)CC(=O)O)c1O		> 100 µM (inactive)		> 100 µM (inactive)	> 100 µM (inactive)	> 100 µM (inactive)	> 100 µM (inactive)	> 100 µM (inactive)	> 100 µM (inactive)	> 100 µM (inactive)	> 100 µM (inactive)	> 100 µM (inactive)	> 100 µM (inactive)	> 100 µM (inactive)	> 100 µM (inactive)	> 100 µM (inactive)	> 100 µM (inactive)	> 100 µM (inactive)	> 100 µM (inactive)	
CC(C)C1NC(=O)[C@H](C)OC(=O)[C@@H](C(C)C)NC(=O)[C@@H](C)OC(=O)C(C(C)C)NC(=O)[C@H](C)OC1=O (some centres not stated)	> 88.7 µM (inactive)	> 50.9 µM (inactive)	> 100 µM (inactive)	> 100 µM (inactive)	> 100 µM (inactive)		> 100 µM (inactive)		29.8 µM (inactive)	> 100 µM (inactive)	> 100 µM (inactive)	> 86.5 µM (inactive)		> 100 µM (inactive)	> 100 µM (inactive)	> 100 µM (inactive)	> 100 µM (inactive)	> 79.4 µM (inactive)	> 95.1 µM (inactive)	
